Assay results from patent US12521335B2, “Cosmetic compositions containing vitamin C compounds and uses thereof” (RoC OPCO LLC, priority 2021, dated 2026).

Assay: DPPH antioxidant assay
Format: biochemical
Details: for DPPH antioxidant activity percent, Avg ± SEM: from 0.1% v/v stock
From the text: The purpose of this study was to evaluate the overall antioxidant capacity of the serum formula of Example 1B and gel-cream formula of Example 1C for their ability to reduce the free radical 2,2-Diphenyl-1-picrylhydrazyl ([…] and Singh (2011). Genesis and development of DPPH method of antioxidant assay. (See J. Food Sci Technol. 2011 August; 48(4): 412-422.) Ascorbic Acid (Vitamin C) was used as positive antioxidant control in the assay. The testing involved the suppression of optical density (OD) at 530 nm to a degree, which is proportional to an effective antioxidant activity. Test and control agents were stored at recommended storage temperature until use. An initial 0.1, 1 or 10% v/v dilution was prepared for each test formula in ultra-pure grade water or […]® 355. Serial 2-fold dilutions were prepared for each material and mixed with DPPH in ethanol solution. All samples were compared to diluent-only treated samples used as negative antioxidant activity. Optical density changes at 530 nm were evaluated 10 minutes after addition of DPPH to each sample. Average absorbance was calculated and plotted for each sample concentration. Effective antioxidant inhibition activity based on the change of absorbance of blank (diluent-only) sample (no material added). […] The DPPH antioxidant assay method was performed to measure antioxidant capacity of test materials. The free radical, 2,2-Diphenyl-1-picrylhydrazyl (DPPH) was obtained from Cayman Chemical Co. (Cat. No. 14805) and a 0.2 mM (0.0788 mg/mL) solution was prepared with 200-proof ethanol (Acros Organics, Cat No. 61509-0020). The assay consisted in the evaluation of the overall antioxidant capacity of test materials ([…] and Singh, 2011) for the ability to reduce DPPH (purple color), a stable free radical to DPPHH (Diphenylpicrylhydrazine; light yellow color). The testing involved the suppression of optical density (OD) at 517-530 nm to a degree which is proportional to an effective antioxidant activity. The antioxidant capacity of each material was compared to ascorbic acid (vitamin C) used as standard control. An initial 0.1, 1 or 10% v/v dilution was prepared for each test formula in ultra-pure grade water or […]® 355. Two-fold serial dilutions were made from the stock solution samples. Negative control wells only diluent was added. The vehicle/diluent used was ultra-pure grade water (Cayman Chemical, Co.; Cat No. 400000) or […] Corp.; Lot No. 170310UT14). Diluents were stored at room temperature and handled by the research scientist. To prepare the serum stock formulation (0.1, 1, 10% v/v), 1:10, 1:100 or 1:1000 dilutions were prepared using a positive displacement pipette. To prepare the 20% Ascorbic Acid and 0.05% stock formulation, a 1-dram glass screw-top vial container was pre-weighed and material added to the container followed by addition of neat vehicle to make a 200 mg/mL or […] solution, respectively. Two-fold serial dilutions were made from the stock solution samples. […] Vials were sealed and formulations were immediately used for antioxidant assays.

[1] = DPPH antioxidant activity near 100%

O=C1O[C@H]([C@@H](O)CO)C(O)=C1O [20% Ascorbic Acid, Ascorbic Acid]
DPPH antioxidant activity percent, Avg ± SEM (0.001 % v/v): 38 ± 8%
DPPH antioxidant activity percent, Avg ± SEM (0.002 % v/v): 31 ± 11%
DPPH antioxidant activity percent, Avg ± SEM (0.003 % v/v): 50 ± 13%
DPPH antioxidant activity percent, Avg ± SEM (0.006 % v/v): 91 ± 4%
DPPH antioxidant activity percent, Avg ± SEM (0.013 % v/v): 100 ± 0%
DPPH antioxidant activity percent, Avg ± SEM (0.025 % v/v): 100 ± 0%
DPPH antioxidant activity percent, Avg ± SEM (0.050 % v/v): 100 ± 0%
Maximum effective Antioxidant Activity: Concentration (% v/v) [1]: 0.0125 % v/v
Maximum effective Antioxidant Activity: Dilution Factor [1]: 8,000
